The NIST ThermoML archive (doi:10.1016/j.fluid.2009.06.018)
Numbers after ± are expanded uncertainties.

What was measured:
[1] = xn = mol fraction of the nth substance listed; details: 298.15 K, 101 kPa, Liquid, Vibrating tube method
[2] = excess molar enthalpy (molar enthalpy of mixing); xn = mol fraction of the nth substance listed; details: 298.15 K, 101 kPa, Liquid, Flow calorimetry
[3] = refractive index (Na D-line) (dimensionless); details: 298.15 K; 101.33 kPa; Liquid; Standard Abbe refractometry
[4] = 298.15 K; 101.33 kPa; Liquid; Vibrating tube method

COCCOCCOCCO [2-[2-(2-methoxyethoxy)ethoxy]ethanol] + CC(Cl)CCl
Details | excess molar enthalpy [kcal/mol] | mass density [kg/m3]
[1], x2 = 0.0554 | – | 1047.4 ± 1.9
[1], x2 = 0.1 | – | 1050.82 ± 1.8
[1], x2 = 0.1507 | – | 1054.88 ± 1.7
[1], x2 = 0.1999 | – | 1058.91 ± 1.6
[1], x2 = 0.2535 | – | 1063.43 ± 1.5
[1], x2 = 0.2977 | – | 1067.32 ± 1.4
[1], x2 = 0.3483 | – | 1071.88 ± 1.3
[1], x2 = 0.401 | – | 1076.8 ± 1.2
[1], x2 = 0.4512 | – | 1081.66 ± 1.1
[1], x2 = 0.5013 | – | 1086.65 ± 1
[1], x2 = 0.5522 | – | 1091.89 ± 0.93
[1], x2 = 0.6013 | – | 1097.16 ± 0.85
[1], x2 = 0.648 | – | 1102.3 ± 0.78
[1], x2 = 0.7005 | – | 1108.34 ± 0.7
[1], x2 = 0.7514 | – | 1114.4 ± 0.63
[1], x2 = 0.7997 | – | 1120.38 ± 0.57
[1], x2 = 0.8567 | – | 1127.98 ± 0.5
[1], x2 = 0.8993 | – | 1133.84 ± 0.46
[1], x2 = 0.9502 | – | 1141.27 ± 0.4
[2], x2 = 0.061 | -0.0429 ± 0.00112 | –
[2], x2 = 0.091 | -0.0565 ± 0.00134 | –
[2], x2 = 0.15 | -0.0912 ± 0.00143 | –
[2], x2 = 0.206 | -0.119 ± 0.00143 | –
[2], x2 = 0.26 | -0.14 ± 0.00148 | –
[2], x2 = 0.311 | -0.1575 ± 0.00153 | –
[2], x2 = 0.36 | -0.1693 ± 0.00155 | –
[2], x2 = 0.407 | -0.1774 ± 0.00158 | –
[2], x2 = 0.452 | -0.1811 ± 0.0016 | –
[2], x2 = 0.496 | -0.1814 ± 0.0016 | –
[2], x2 = 0.558 | -0.1759 ± 0.00158 | –
[2], x2 = 0.597 | -0.1682 ± 0.00158 | –
[2], x2 = 0.654 | -0.1526 ± 0.00151 | –
[2], x2 = 0.707 | -0.133 ± 0.00146 | –
[2], x2 = 0.757 | -0.111 ± 0.00141 | –
[2], x2 = 0.805 | -0.0875 ± 0.00139 | –
[2], x2 = 0.851 | -0.0629 ± 0.00131 | –
[2], x2 = 0.908 | -0.0328 ± 0.00117 | –
[2], x2 = 0.949 | -0.0144 ± 0.00105 | –

CCCCOCCOCCO [3,6-dioxa-1-decanol]
Details | mass density [kg/m3] | refractive index
[3] | – | 1.42998 ± 0.00078
[4] | 948.48 ± 0.78 | –

CCCCOCCOCCO [3,6-dioxa-1-decanol] + CC(Cl)CCl
Details | excess molar enthalpy [kcal/mol] | mass density [kg/m3]
[1], x2 = 0.052 | – | 954.88 ± 0.75
[1], x2 = 0.1 | – | 961.07 ± 0.72
[1], x2 = 0.155 | – | 968.38 ± 0.69
[1], x2 = 0.1997 | – | 974.56 ± 0.66
[1], x2 = 0.2496 | – | 981.76 ± 0.63
[1], x2 = 0.3037 | – | 989.93 ± 0.6
[1], x2 = 0.3497 | – | 997.2 ± 0.58
[1], x2 = 0.4033 | – | 1006.02 ± 0.55
[1], x2 = 0.4504 | – | 1014.14 ± 0.53
[1], x2 = 0.4998 | – | 1023.03 ± 0.51
[1], x2 = 0.5535 | – | 1033.23 ± 0.49
[1], x2 = 0.6001 | – | 1042.57 ± 0.48
[1], x2 = 0.6494 | – | 1052.96 ± 0.46
[1], x2 = 0.7024 | – | 1064.78 ± 0.44
[1], x2 = 0.7527 | – | 1076.67 ± 0.43
[1], x2 = 0.8024 | – | 1089.22 ± 0.41
[1], x2 = 0.8488 | – | 1101.75 ± 0.4
[1], x2 = 0.901 | – | 1116.84 ± 0.38
[1], x2 = 0.9479 | – | 1131.48 ± 0.37
[2], x2 = 0.066 | -0.039 ± 0.000932 | –
[2], x2 = 0.098 | -0.0499 ± 0.00103 | –
[2], x2 = 0.161 | -0.0736 ± 0.00115 | –
[2], x2 = 0.191 | -0.086 ± 0.00108 | –
[2], x2 = 0.248 | -0.0983 ± 0.00105 | –
[2], x2 = 0.303 | -0.107 ± 0.00108 | –
[2], x2 = 0.355 | -0.1121 ± 0.00108 | –
[2], x2 = 0.404 | -0.113 ± 0.00108 | –
[2], x2 = 0.45 | -0.1104 ± 0.00108 | –
[2], x2 = 0.495 | -0.105 ± 0.00108 | –
[2], x2 = 0.558 | -0.0936 ± 0.00103 | –
[2], x2 = 0.598 | -0.0852 ± 0.00105 | –
[2], x2 = 0.654 | -0.0686 ± 0.00103 | –
[2], x2 = 0.707 | -0.0514 ± 0.00098 | –
[2], x2 = 0.757 | -0.0343 ± 0.000932 | –
[2], x2 = 0.803 | -0.0186 ± 0.00086 | –
[2], x2 = 0.847 | -0.00454 ± 0.000741 | –
[2], x2 = 0.902 | 0.00837 ± 0.000598 | –
[2], x2 = 0.953 | 0.00985 ± 0.00055 | –

CCCCOCCOCCOCCO [triethylene glycol monobutyl ether]
Details | mass density [kg/m3] | refractive index
[3] | – | 1.43973 ± 0.006
[4] | 988.44 ± 350 | –

CCCCOCCOCCOCCO [triethylene glycol monobutyl ether] + CC(Cl)CCl
Details | excess molar enthalpy [kcal/mol] | mass density [kg/m3]
[1], x2 = 0.0919 | – | 996.32 ± 270
[1], x2 = 0.1463 | – | 1001.35 ± 230
[1], x2 = 0.2006 | – | 1006.67 ± 200
[1], x2 = 0.2501 | – | 1011.79 ± 170
[1], x2 = 0.3036 | – | 1017.68 ± 150
[1], x2 = 0.3548 | – | 1023.63 ± 120
[1], x2 = 0.4015 | – | 1029.38 ± 100
[1], x2 = 0.4519 | – | 1035.95 ± 86
[1], x2 = 0.5032 | – | 1043.04 ± 70
[1], x2 = 0.5498 | – | 1049.9 ± 57
[1], x2 = 0.6016 | – | 1058.03 ± 45
[1], x2 = 0.6526 | – | 1066.61 ± 34
[1], x2 = 0.701 | – | 1075.35 ± 26
[1], x2 = 0.7502 | – | 1084.93 ± 18
[1], x2 = 0.8009 | – | 1095.6 ± 12
[1], x2 = 0.851 | – | 1107.21 ± 7.6
[1], x2 = 0.9003 | – | 1119.7 ± 4.1
[1], x2 = 0.9483 | – | 1133.01 ± 1.7
[2], x2 = 0.079 | -0.0579 ± 0.00146 | –
[2], x2 = 0.117 | -0.0778 ± 0.0016 | –
[2], x2 = 0.154 | -0.102 ± 0.00167 | –
[2], x2 = 0.19 | -0.121 ± 0.00153 | –
[2], x2 = 0.256 | -0.146 ± 0.0016 | –
[2], x2 = 0.317 | -0.167 ± 0.00167 | –
[2], x2 = 0.346 | -0.1746 ± 0.00167 | –
[2], x2 = 0.401 | -0.1859 ± 0.00172 | –
[2], x2 = 0.452 | -0.1912 ± 0.00172 | –
[2], x2 = 0.5 | -0.1913 ± 0.00172 | –
[2], x2 = 0.545 | -0.188 ± 0.0017 | –
[2], x2 = 0.606 | -0.1763 ± 0.00165 | –
[2], x2 = 0.645 | -0.1648 ± 0.00163 | –
[2], x2 = 0.698 | -0.145 ± 0.00155 | –
[2], x2 = 0.746 | -0.123 ± 0.00151 | –
[2], x2 = 0.805 | -0.0932 ± 0.00143 | –
[2], x2 = 0.859 | -0.0635 ± 0.00136 | –
[2], x2 = 0.907 | -0.0371 ± 0.00122 | –
[2], x2 = 0.951 | -0.0164 ± 0.0011 | –
